“Also recorded” adds a separate entry of the source. Like-named read-outs stand apart in the source and are kept apart here.
How the values were obtained:
MCF-7 = test: MTS antiproliferative assay, MCF-7 (with or without added metal ions); type: cell-based, human; details: for improvement in cytotoxicity after interacting with Cu^2+: MCF-7 cells, 20 µM CuSO4; for Selectivity index, calculated for MCF-7: versus NHDF
Method: (§1) The cells were seeded in 96-well plates (Nunc) at a density of 3,500 cells/well (HCT116 and MCF-7) and 3,000 cells/well (NHDF) and incubated at 37° C for 24 h. The assay was performed following a 96 h incubation with varying concentrations of the compounds that were being tested. Then, 20 µL of CellTiter 96® AQueous One Solution-MTS (Promega) was added to each well (with 100 µL DMEM without phenol red) and incubated for 1 h at 37° C. The optical densities of the samples were analyzed at 490 nm using a multi-plate reader (Synergy 4, Bio Tek). Results were expressed as a percentage of the control and calculated as the inhibitory concentration (IC50) values (using GraphPad Prism 5). The IC50 parameter was defined as the compound concentration that was necessary to reduce the proliferation of cells to 50% of the untreated control. Each individual compound was tested in triplicate in a single experiment with each experiment being repeated three or four times.
(§2) The HCT116 and MCF-7 cells were seeded in 96-well plates (Nunc) at a density of 3,500 cells/well and incubated at 37° C for 24 h. The MTS assay was performed following a 96 h incubation with varying concentrations of the tested compounds. Additionally, a 20 µM solution of CuSO4, FeSO4 or FeCl3 was added into wells with the tested compounds. The results were expressed as a percentage of the control and calculated as the inhibitory concentration (IC50) values using GraphPad Prism 5. Each individual compound was tested in triplicate in a single experiment with each experiment being repeated three times.

calf-thymus DNA (CT-DNA) [1] = test: Intercalation, absorption spectra with CT-DNA; type: binding; details: for % hypochromism / Changes in absorbance / Δε: bound to CT-DNA; for blue/red shift: wavelengths of maximum absorption, compound alone vs DNA-bound
Method: For the DNA binding studies, Calf-thymus DNA (CT-DNA) was purchased from Sigma Aldrich. The lyophilized CT-DNA was dissolved in 10 mM Tris-HCl, pH 7.9, mixed gently and left overnight at 4° C. The purity of the CT-DNA solution was determined by measuring the ratio of UV absorbance at 260 and 280 nm. […] Then, the concentration of CT-DNA was determined from the absorbance at 260 nm using an extinction coefficient of 6600 M^–1cm^–1. The tested TSC and DOX were dissolved in DMSO to a concentration of 8.35 mM, which was then used as the stock solution for preparing the various concentrations (25, 12.5, 6 and 3 µM) in 1 mL in 10 mM of Tris-HCl (pH 7.9). Afterwards, 18 µM CT-DNA was added to the prepared solutions, which were incubated for 1.5 h at 37° C with occasional vortexing. The absorption spectra were measured using a Hitachi U-2900 spectrophotometer in range of 200–500 nm. All absorption spectra were imported and compared in OriginPro 8.0.

cdc2 = test: Western blot of cdc2; type: cell-based, human; details: HCT116, 1 µM
Method: (§3) The HCT116 cells were seeded in 3 cm Petri dishes (Nunc) at a density of 0.5·10^6 cells/well and incubated overnight. The next day, solutions of TSC (1 μM) and DOX (5 μM) were added and the cells incubated for 24 or 48 h. Cells were harvested by trypsinization and washed with cold PBS. Next, the cells were centrifuged and suspended in an RIPA buffer (Thermo Scientific) containing Halt Protease Inhibitor Cocktail (Thermo Scientific), Halt Phosphatase Inhibitor Cocktail (Thermo Scientific) along with 0.5 M EDTA and lysed for 20 min on ice. Then, the lysates were sonicated, centrifuged at 10,000 rpm for 10 min at 4° C and the supernatants were collected for further analysis. The protein concentration was determined using a Micro BCA™ Protein Assay Kit (Thermo Scientific) according to the manufacturer’s instructions. Equal amounts of the proteins (20 μg) were electrophoresed on SDS-Page gels and transferred onto a nitrocellulose membranes. The membranes were blocked in 5% non-fat milk prepared in PBS containing 0.1% Tween-20 (TPBS) for 1 h. After blocking, the membranes were incubated with specific primary antibodies: cdc2 (#POH1, Cell Signaling), p21^Waf1/Cip1 (#12D1, Cell Signaling), p53 (#1C12, Cell Signaling) and β-Actin (#8H10D10, Cell Signaling) overnight at 4° C, then washed and incubated with horseradish peroxidase (HRP)-conjugated secondary antibodies for 1h at room temperature. All of antibodies were diluted 1:1000 in 5% milk in TPBS. Finally, the membranes were washed and incubated with a SuperSignal™ West Pico Chemiluminescent Substrate (Thermo Scientific). The chemiluminescence signals were captured using a ChemiDoc™ XRS+ System (BioRad). The experiments were performed at least three times. Densitometric analysis was performed using ImageJ 1.41 software (Wayne Rasband, National Institutes of Health, USA).

HCT116 [2] = test: MTS antiproliferative assay, HCT116 (with or without added metal ions); type: cell-based, human; details: for Selectivity index, calculated for HCT116: versus NHDF
Method: as §1, §2

MnSOD = test: mRNA expression (Real-Time PCR) of MnSOD; type: cell-based, human; details: HCT116, TSC 1 µM, 12 or 24 h
Method: (§4) The HCT116 cells were seeded in 3 cm Petri dishes (Nunc) at a density of 0.5·10^6 cells/well and incubated overnight. Next, the medium was removed and solutions of TSC (1 μM) and DOX (5 μM) were added. After 12 or 24 h, total RNA was isolated from the cells using TRIzol Reagent (Ambion) according to the manufacturer’s instructions. cDNA synthesis was performed with 5 μg of total RNA using a GoScript™ Reverse Transcriptase kit (Promega) and Oligo(dT)23 Primers (Sigma). The Real-Time PCR was performed with a CTX96 Touch™ Real-Time PCR Detection System (Biorad) in a 20 μL reaction volume. The reaction consisted of PowerUp™ SYBR® Green Master Mix (Applied Biosystems), a primer pair mix (0.5 μM each) and 1 μL of cDNA. All primer pair sequences were purchased from Sigma-Aldrich and are listed in Supplementary Table 2. The experiment was performed under the following conditions: initial denaturation at 95° C for 120 sec; followed by 40 denaturation cycles at 95° C, 15 sec; annealing (primer-specific temperature for 30 sec) and extension at 72° C for 60 sec. Data was analyzed based on a comparison of the expression of the target genes to a reference gene – β-actin, using the 2^–ΔΔCT method. The experiments were performed at least three times.

p21 = test: Western blot of p21; type: cell-based, human; details: HCT116, 1 µM
Method: as §3

NHDF [3] = test: MTS cytotoxicity assay, normal fibroblasts; type: cell-based, human; details: 96 h incubation
Method: as §1

NHDF [4] = tested on: NHDF; design: method as in PMID 25329549; details: 96 h incubation, MTS; cited from earlier work
Ndrg1 = test: mRNA expression (Real-Time PCR) of Ndrg1; type: cell-based, human; details: HCT116, TSC 1 µM, 24 h
Method: as §4

HCT116 cells = test: Cell cycle assay (Muse Cell-Cycle Kit); type: cell-based, human; details: HCT116, TSC 1 µM, 48 h; untreated 72%
Method: The HCT116 cells were seeded in 3 cm Petri dishes (Nunc) at a density of 0.25·10^6 cells/well and incubated at 37° C for 24 h. […] After a 48 h treatment, assays were performed using a Muse Cell-Cycle Kit (Millipore) according to the manufacturer’s instructions. Briefly, cells were collected, washed with cold PBS and centrifuged at 300 g. Then, the cells were fixed in ice cold 70% ethanol and stored at –20° C overnight. Afterwards, the cells were centrifuged and resuspended in 200 μL of Muse™ Cell Cycle Reagent and incubated for 30 min at room temperature in the dark. After staining, the cells were processed for cell cycle analysis using a Muse Cell Analyzer (Millipore). The experiments were performed at least three times.

CAT = test: mRNA expression (Real-Time PCR) of CAT; type: cell-based, human; details: HCT116, TSC 1 µM, after the first 12 h
Method: as §4

HCT116 [5] = tested on: HCT116; design: method as in PMID 25329549; details: 96 h incubation, MTS; cited from earlier work
calf-thymus DNA (CT-DNA) [6] = tested on: calf-thymus DNA (CT-DNA); design: method as in PMID 26599982; details: cited from earlier work
[7] = Homo sapiens, MCF7, 96 h, 20 µM CuSO4 added, read-out: Activity - IC50 MCF-7+ Cu^2+
[8] = Homo sapiens, MCF7, 96 h, 20 µM FeCl3 added, read-out: Activity - IC50 MCF-7+ Fe^3+
[9] = Homo sapiens, MCF7, 96 h incubation, MTS, read-out: Activity - IC50 MCF-7
[10] = Homo sapiens, HCT-116, 96 h, 20 µM CuSO4 added, read-out: Activity - IC50 HCT116+ Cu^2+
[11] = Homo sapiens, HCT-116, 96 h, 20 µM FeCl3 added, read-out: Activity - IC50 HCT116+ Fe^3+
[12] = Homo sapiens, HCT-116, 96 h incubation, MTS, read-out: Activity - IC50 HCT116
[13] = 96 h, 20 µM CuSO4 added, read-out: Activity - IC50 MCF-7+ Cu^2+
[14] = 96 h, 20 µM FeCl3 added, read-out: Activity - IC50 MCF-7+ Fe^3+
[15] = 96 h incubation, MTS, read-out: Activity - IC50 MCF-7
[16] = 96 h, 20 µM CuSO4 added, read-out: Activity - IC50 HCT116+ Cu^2+
[17] = 96 h, 20 µM FeCl3 added, read-out: Activity - IC50 HCT116+ Fe^3+

Structure (SMILES) | IC50 (MCF-7; [7]) [nM] | IC50 (MCF-7; [8]) [nM] | IC50 (MCF-7; [9]) [nM] | improvement in cytotoxicity after interacting with Cu^2+ (MCF-7) | Selectivity index, calculated for MCF-7 (MCF-7) | % hypochromism (calf-thymus DNA (CT-DNA) [1]) [%] | Changes in absorbance (calf-thymus DNA (CT-DNA) [1]) | Δε (calf-thymus DNA (CT-DNA) [1]) [M⁻¹ cm⁻¹] | blue/red shift (calf-thymus DNA (CT-DNA) [1]) [nm] | expression of cdc2 protein (densitometric analysis) (cdc2) | IC50 (HCT116 [2]; [10]) [nM] | IC50 (HCT116 [2]; [11]) [nM] | IC50 (HCT116 [2]; [12]) [nM] | Selectivity index, calculated for HCT116 (HCT116 [2]) | mRNA expression of MnSOD (MnSOD) | expression of p21 protein (densitometric analysis) (p21) | IC50 (NHDF [3]; Homo sapiens, NHDF) [nM] | IC50 (MCF-7; [13]) [nM] | IC50 (MCF-7; [14]) [nM] | IC50 (MCF-7; [15]) [nM] | other results
Fc1ccc(N2CCN(C(=S)NN=Cc3ccc4ccccc4n3)CC2)cc1 [Compound 1b, 4-(4-fluorophenyl)-N’-[(quinolin-2-yl)methylidene]piperazine-1-carbothiohydrazide] | 3.78 ± 0.88 | 25 ± 2.16 | 31.4 ± 3.38 | eight-fold | 3.6 | 24.2 | hypochromism | 2313.3 | 10 | lowest values; also recorded: strongest decreasing effect | 19.7 ± 0.53 | 72.4 ± 12.9 | 62.2 ± 8.95 | 1.8 | large drop | increased p21 level, but in a lesser degree | 114 ± 10.3 |  |  |  | 
S=C(NN=C(c1ccccn1)c1ccccn1)N1CCN(c2ccccn2)CC1 [Compound 3b] |  |  |  | eight-fold |  | 31.9 | hypochromism | 6133.3 | 5 | strongest decreasing effect |  |  |  |  | large drop | increased p21 level, but in a lesser degree |  | 0.54 ± 0.15 | 5.35 ± 0.66 | 4.1 ± 0.93 | IC50 (NHDF [4]): 160 ± 40 nM; mRNA expression of Ndrg1 (Ndrg1): strongest; cells in G0/G1 phase (HCT116 cells): 39%; IC50 (HCT116 [2]; [16]): 1.56 ± 0.44 nM; IC50 (HCT116 [2]; [17]): 9.94 ± 2.69 nM; mRNA expression of CAT (CAT): higher; IC50 (HCT116 [5]): 2.06 ± 0.88 nM
FC(F)(F)c1cnc(N2CCN(C(=S)NN=Cc3ccc4ccccc4n3)CC2)c(Cl)c1 [Compound 1c] |  |  |  |  |  | 22.6 | hypochromism | 2695.6 | 4 |  |  |  |  |  |  | marked up-regulation |  | 4.48 ± 1.18 | 39.1 ± 6.51 | 17.2 ± 2.71 | IC50 (HCT116 [2]; [16]): 7.19 ± 1.84 nM; IC50 (HCT116 [2]; [17]): 70.8 ± 7.28 nM; IC50 (HCT116 [2]; 96 h incubation, MTS, read-out: Activity - IC50 HCT116): 72.1 ± 9.4 nM; improvement in cytotoxicity after interacting with Cu^2+ (HCT116 [2]; HCT116 cells, 20 µM CuSO4): more than a ten-fold increase; mRNA expression of CAT (CAT): higher; IC50 (NHDF [3]): 17100 nM
COc1cccc2c1C(=O)c1c(O)c3c(c(O)c1C2=O)C[C@@](O)(C(=O)CO)C[C@@H]3O[C@H]1C[C@H](N)[C@H](O)[C@H](C)O1 [DOX, doxorubicin, reference compound] | 336 ± 65.3 | 414 ± 59 | 405 ± 38 |  | 0.3 |  |  |  |  |  | 62.5 ± 8.24 | 84.8 ± 11.2 | 91 ± 6.96 | 1.5 |  |  | 137 ± 26 |  |  |  | % hypochromism (calf-thymus DNA (CT-DNA) [6]; bound to CT-DNA): 34.2%; Changes in absorbance (calf-thymus DNA (CT-DNA) [6]; bound to CT-DNA): hypochromism; Δε (calf-thymus DNA (CT-DNA) [6]; bound to CT-DNA): 3235.6 M⁻¹ cm⁻¹; % hypochromism (calf-thymus DNA (CT-DNA) [6]; bound to CT-DNA, listed as doxorubicin): about 34.2%; blue/red shift (calf-thymus DNA (CT-DNA) [6]; wavelengths of maximum absorption, compound alone vs DNA-bound): 10 nm

Source: PMC5915149, “The role of oxidative stress in activity of anticancer thiosemicarbazones” (Oncotarget, 2018)
